Measured values: patent US20050203176A1, “Carbamates as HIV anti-viral agents” (WYETH, priority 2004, published 2005)
Where two headings read alike, the source gives them in different places.

Experiments:
[1] = target: T1, HIV Reverse transcriptase (RT) p66/p51, RDDP activity (Human immunodeficiency virus type 1 group M subtype B, UniProt P04585); assay: RNA dependent DNA polymerase (RDDP) activity of HIV RT, 33P TTP incorporation with polyrA-oligodT12-18; assay type: biochemical
T1 construct: […]; purchased Worthington

[2] = target: T2, HIV reverse transcriptase (RNase H activity) (Human immunodeficiency virus type 1 group M subtype B, UniProt P04585); assay: RNase H / HIV reverse transcriptase inhibition (fluorescent probe-target hybrid assay); assay type: biochemical; conditions: inhibition of HIV reverse transcriptase / RNase H, Table I
T2 construct: HIV reverse transcriptase has an RNase H domain at the C-terminus of its p66 subunit
From the text: Preferably, the RNase H/HIV reverse transcriptase modulatory activity of the compounds of the present invention may be determined by the methods described in copending U.S. provisional patent Application No. 60/436,125, filed Dec. 19, 2003 and PCT Application Ser. No. WO 2004/059012, filed Dec. 22, 2003, published Jul. 15, 2004, entitled ASSAY FOR RNase ACTIVITY of Olsen et al., incorporated herein by reference in their entirety. Specifically, the modulatory activity of a carbamate derivative of the present invention may be determined by hybridizing a target nucleic acid to a fluorescently labeled oligonucleotide probe complementary to the target nucleic acid and containing a fluorophor at one terminus and a quenching group at the other terminus to obtain a probe-target hybrid, wherein (i) the unhybridized probe adopts a conformation that places the fluorophor and quencher in such proximity that the quencher quenches the fluorescent signal of the fluorophor, and (ii) the formation of the probe-target hybrid causes sufficient separation of the fluorophor and quencher to reduce quenching of the fluorescent signal of the fluorophor. Next, a first and second sample containing the probe-target hybrid are prepared. The probe-target hybrid of the first sample is then contacted with an RNase H enzyme (such as HIV reverse transcriptase) in an amount sufficient to selectively cleave the target nucleic acid and thereby release the intact probe. The probe-target hybrid of the second sample is also contacted with the RNase H enzyme in an amount sufficient to selectively cleave the target nucleic acid and thereby release the intact probe in the presence of a candidate carbamate derivative of the present invention. The release of the probe in each sample may then be detected by measuring the […] in the fluorescent signal of the fluorophor as compared to the signal of the probe-target hybrid. A comparison of the rate of the decrease in the fluorescent signal of the fluorophor in the two samples is made to determine whether there is a difference in the rate of the decrease in the two samples. […] This method is also useful to identify carbamate derivatives of the present invention, wherein candidate carbamate derivatives are screened for their ability to modulate RNase/HIV reverse transcriptase activity.

HIV-1 infection = conditions: cited from earlier work

Compound: N#Cc1cccc(NC(=O)CSC(=S)N(Cc2ccccc2)c2ccccc2)c1 [Example 6, 2-[(3-cyanophenyl)amino]-2-oxoethyl benzyl(phenyl)dithiocarbamate]
- IC50 [1]: > 80 µM
- IC50 [2]: 11.4 µM

Compound: COc1ccc(C)cc1NC(=O)CSC(=S)N(Cc1ccccc1)c1ccccc1 [Example 5, 2-[(2-methoxy-5-methylphenyl)amino]-2-oxoethyl benzyl(phenyl)dithiocarbamate]
- IC50 [1]: > 80 µM
- IC50 [2]: 8.3 µM

Compound: O=C(CSC(=S)N(Cc1ccccc1)Cc1ccccc1)Nc1ccc(Cl)cc1Cl [Example 4, 2-[(2,4-dichlorophenyl)amino]-2-oxoethyl dibenzyldithiocarbamate]
- IC50 [1]: > 160 µM
- IC50 [2]: 5.8 µM

Compound: Cc1cn([C@H]2C[C@H](N=[N+]=[N-])[C@@H](CO)O2)c(=O)[nH]c1=O [AZT, zidovudine, reference compound]
- IC50 [1]: < 0.2 µM

Compound: O=C(CSC(=S)N(Cc1ccccc1)c1ccccc1)Nc1ccc(Cl)c(Cl)c1Cl [Example 7, 2-oxo-2-[(2,3,4,-trichlorophenyl)amino]ethyl benzylphenyl dithiocarbamate]
- IC50 [1]: > 80 µM
- IC50 [2]: 26.6 µM

Compound: O=C(CSC(=S)N(Cc1ccccc1)Cc1ccccc1)Nc1ccc(Cl)c(Cl)c1Cl [Example 2, 2-oxo-2-[(2,3,4-trichlorophenyl)amino]ethyl dibenzyldithiocarbamate]
- IC50 [1]: > 80 µM
- IC50 [2]: 3.3 µM

Compound: 2-[(2,4-dimethylphenyl)amino]-2-oxoethyl dibenzyl(phenyl)dithiocarbamate [Example 8]
- IC50 ([1]; inhibition of polymerase (RDDP) activity of HIV reverse transcriptase, Table II, read-out: IC50): > 80 µM
- IC50 [2]: 41.5 µM

Compound: N#Cc1cccc(NC(=O)CSC(=S)N(Cc2ccccc2)Cc2ccccc2)c1 [Example 3, 2-[(3-cyanophenyl)amino]-2-oxoethyl dibenzyldithiocarbamate]
- IC50 [1]: > 80 µM
- IC50 [2]: 4.7 µM

Compound: Cc1ccc(NC(=O)CSC(=S)N(Cc2ccccc2)Cc2ccccc2)c(C)c1 [Example 1, 2-[(2,4-dimethylphenyl)amino]-2-oxoethyl dibenzyldithiocarbamate]
- IC50 [1]: 30 µM
- IC50 [2]: 3.1 µM

Compound: COc1ccc(C)cc1NC(=O)CSC(=S)N(Cc1ccccc1)Cc1ccccc1 [Example 9]
- IC50 [1]: > 80 µM
- IC50 [2]: 46.2 µM

Compound: CCN(CC)C(=S)S [diethyldicarbamate]
- patients who died during eighteen-month follow up (HIV-1 infection; 3 placebo patients had died from AIDS): none
- patients with AIDS at the end of the study (HIV-1 infection; HIV-1 patients Walter Reed stages 2-4, 24 weeks treatment, 6 of the placebo patients had AIDS): no patient
- disease progression (HIV-1 infection; HIV-1 patients, group that received the drug vs placebo): Significantly delayed disease progression
